Literature values, collected in patent US20040139488A1, “Compositions and methods for enhancing disease resistance in fish” (priority 2002, published 2004).

What was measured:
E. ictaluri = settings: synthesized, HPLC-purified peptide, in vitro
Aeromonas salmonicida = settings: synthesized, HPLC-purified peptide, in vitro

## cecropin B: mature cecropin B from Hyalophora cecropia (SEQ ID NO:19), synthesized peptide purified by high-pressure liquid chromatography (KWKVFKKIEKMGRNIRNGIVKAGPAIAVLGEAKALG; listed as Hyalophora cecropia)
E. ictaluri
  bactericidal activity against E. ictaluri: possess the predicted bactericidal activity
Aeromonas salmonicida
  bactericidal activity against Aeromonas salmonicida: possess the predicted bactericidal activity
